Columns and labels:
Format in all cases: cell-based
ΔF508-CFTR = target: T1, ΔF508-CFTR (Homo sapiens, UniProt P13569, DEL508-508); experiment: Membrane potential optical assay for ΔF508-CFTR potentiation (FLIPR III); details: relative efficacy; ΔF508-CFTR NIH 3T3 cells
T1 construct: expressed in transfected cells; host or cells: NIH3T3 mouse fibroblasts
Excerpt: The assay utilizes fluorescent voltage sensing dyes to measure changes in membrane potential using a fluorescent plate reader (e.g., FLIPR III, Molecular Devices, Inc.) as a readout for increase in functional ΔF508-CFTR in NIH 3T3 cells. The driving force for the response is the creation of a chloride ion gradient in conjunction with channel activation by a single liquid addition step after the cells have previously been treated with compounds and subsequently loaded with a voltage sensing dye. To identify potentiators of ΔF508-CFTR, a double-addition HTS assay format was developed. This HTS assay utilizes fluorescent voltage sensing dyes to measure changes in membrane potential on the FLIPR III as a measurement for increase in gating (conductance) of ΔF508 CFTR in temperature-corrected ΔF508 CFTR NIH 3T3 cells. The driving force for the response is a Cl^− ion gradient in conjunction with channel activation with forskolin in a single liquid addition step using a fluorescent plate reader such as FLIPR III after the cells have previously been treated with potentiator compounds (or DMSO vehicle control) and subsequently loaded with a redistribution dye. Bath Solution #1: (in mM) NaCl 160, KCl 4.5, CaCl2 2, MgCl2 1, HEPES10, pH 7.4 with NaOH. Chloride-free bath solution: Chloride salts in Bath Solution #1 (above) are substituted with gluconate salts. […]

human CFTR mutant A455E = target: T2, human CFTR mutant A455E (Homo sapiens, UniProt P13569, A455E); experiment: FRT cell Ussing chamber chloride transport assay; details: FRT cells expressing A455E CFTR
T2 construct: expressed in transfected cells; host or cells: Fisher rat thyroid (FRT) FlpIn cells, pcDNA5/FRT
Excerpt: (§1) DNA cloning: Wild-type CFTR coding region was inserted into pcDNA5/FRT (Invitrogen, San Diego, Calif.) between EcoRV and ApaI.
(§2) Single CFTR gene mutations were introduced into the wild-type CFTR coding sequence by using QuickChange XL site-directed mutagenesis kit (Stratagene, Cambridge, UK). The CFTR coding region as well as its promoter sequence and 3′ untranslated sequence was fully sequenced to confirm the mutagenesis reaction.
(§3) The CFTR gene was stably expressed in Fisher rat thyroid (FRT) cells through FlpIn system. The FRT-FlpIn host cell line was generated by stably transfecting FRT cells with pFRT/lacZeo. The single integration of a FRT site was confirmed by Southern blot. After the mutant CFTR DNA was transfected into the FRT-FlpIn host cell line, the cells were incubate at 37° C. in Coon's modified Ham's F12 containing 10% FBS, 1% Pen/Strep, and 36 ml of Na− Bicarbonate for up to 8 passages under hygromycin selection (200 ug/ml).
(§4) All cells were grown on Costar® Snapwell™ cell culture inserts at maintained at 37° C. prior to recording. The cell culture inserts were mounted into an Ussing chamber (VCC MC8; Physiologic Instruments, Inc., San Diego, Calif.) to record ISC in the voltage-clamp mode (Vhold=0 mV). For FRT cells, the basolateral membrane was permeabilized with 360 μg/ml Nystatin and a basolateral to apical Cl− gradient was established. The basolateral bath solution contained (in mM); 135 NaCl, 1.2 CaCl2, 1.2 MgCl2, 2.4 K2HPO4, 0.6 KHPO4, 10 N-2-hydroxyethylpiperazine-N′-2-ethanesulfonic acid (HEPES), and 10 dextrose (titrated to pH 7.4 with NaOH). The apical NaCl was replaced by equimolar Na+ gluconate (titrated to pH 7.4 with NaOH). For HBE cells, the ISC was measured in the presence of a basolateral to apical Cl− gradient. The normal Cl− solution contained (in mM) 145 NaCl, 3.3 K2HPO4, 1.2 MgCl2, 1.2 CaCl2, 10 Glucose, 10 HEPES (pH adjusted to 7.35 with NaOH) and the low Cl− solution contained (in mM) 145 NaGluconate, 1.2 MgCl2, 1.2 CaCl2, 10 glucose, 10 HEPES (pH adjusted to 7.35 with NaOH). All recordings were digitally acquired using a Acquire and Analyze software (version 2; Physiologic Instruments, Inc. San Diego, Calif.).
(§5) The 10 μM forskolin stimulated response in FRT cell expressing different mutant CFTR forms or in HBE cells isolated from CF patients was normalized to the 10 μM forskolin-stimulated response in FRT cells expressing wild-type CFTR or in HBE isolated from non-CF individuals and expressed as % wild-type CFTR. In HBE, amiloride was added prior to forskolin application to block the epithelial Na+ channel.

human CFTR mutant D110E = target: T3, human CFTR mutant D110E (Homo sapiens, UniProt P13569, D110E); experiment: FRT cell Ussing chamber chloride transport assay; details: FRT cells expressing D110E CFTR
T3 construct: expressed in transfected cells; host or cells: Fisher rat thyroid (FRT) FlpIn cells, pcDNA5/FRT
Excerpt: as §1, §2, §3, §4, §5

human CFTR mutant D110H = target: T4, human CFTR mutant D110H (Homo sapiens, UniProt P13569, D110H); experiment: FRT cell Ussing chamber chloride transport assay; details: FRT cells expressing D110H CFTR
T4 construct: expressed in transfected cells; host or cells: Fisher rat thyroid (FRT) FlpIn cells, pcDNA5/FRT
Excerpt: as §1, §2, §3, §4, §5

human CFTR mutant D1152H = target: T5, human CFTR mutant D1152H (Homo sapiens, UniProt P13569, D1152H); experiment: FRT cell Ussing chamber chloride transport assay; details: FRT cells expressing D1152H CFTR
T5 construct: expressed in transfected cells
Excerpt: as §1, §2, §3, §4, §5

human CFTR mutant D1270N = target: T6, human CFTR mutant D1270N (Homo sapiens, UniProt P13569, D1270N); experiment: FRT cell Ussing chamber chloride transport assay; details: FRT cells expressing D1270N CFTR
T6 construct: expressed in transfected cells; host or cells: Fisher rat thyroid (FRT) FlpIn cells, pcDNA5/FRT
Excerpt: as §1, §2, §3, §4, §5

human CFTR mutant D579G = target: T7, human CFTR mutant D579G (Homo sapiens, UniProt P13569, D579G); experiment: FRT cell Ussing chamber chloride transport assay; details: FRT cells expressing D579G CFTR
T7 construct: expressed in transfected cells; host or cells: Fisher rat thyroid (FRT) FlpIn cells, pcDNA5/FRT
Excerpt: as §1, §2, §3, §4, §5

human CFTR mutant E56K = target: T8, human CFTR mutant E56K (Homo sapiens, UniProt P13569, E56K); experiment: FRT cell Ussing chamber chloride transport assay; details: FRT cells expressing E56K CFTR
T8 construct: expressed in transfected cells; host or cells: Fisher rat thyroid (FRT) FlpIn cells, pcDNA5/FRT
Excerpt: as §1, §2, §3, §4, §5

human CFTR mutant F1074L = target: T9, human CFTR mutant F1074L (Homo sapiens, UniProt P13569, F1074L); experiment: FRT cell Ussing chamber chloride transport assay; details: FRT cells expressing F1074L CFTR
T9 construct: expressed in transfected cells; host or cells: Fisher rat thyroid (FRT) FlpIn cells, pcDNA5/FRT
Excerpt: as §1, §2, §3, §4, §5

human CFTR mutant G1244E = target: T10, human CFTR mutant G1244E (Homo sapiens, UniProt P13569, G1244E); experiment: FRT cell Ussing chamber chloride transport assay; details: FRT cells expressing G1244E CFTR
T10 construct: expressed in transfected cells; host or cells: Fisher rat thyroid (FRT) FlpIn cells, pcDNA5/FRT
Excerpt: as §1, §2, §3, §4, §5

human CFTR mutant G1349D = target: T11, human CFTR mutant G1349D (Homo sapiens, UniProt P13569, G1349D); experiment: FRT cell Ussing chamber chloride transport assay; details: FRT cells expressing G1349D CFTR
T11 construct: expressed in transfected cells; host or cells: Fisher rat thyroid (FRT) FlpIn cells, pcDNA5/FRT
Excerpt: as §1, §2, §3, §4, §5

human CFTR mutant G178R = target: T12, human CFTR mutant G178R (Homo sapiens, UniProt P13569, G178R); experiment: FRT cell Ussing chamber chloride transport assay; details: FRT cells expressing G178R CFTR
T12 construct: expressed in transfected cells; host or cells: Fisher rat thyroid (FRT) FlpIn cells, pcDNA5/FRT
Excerpt: as §1, §2, §3, §4, §5

human CFTR mutant G551S = target: T13, human CFTR mutant G551S (Homo sapiens, UniProt P13569, G551S); experiment: FRT cell Ussing chamber chloride transport assay; details: FRT cells expressing G551S CFTR
T13 construct: expressed in transfected cells; host or cells: Fisher rat thyroid (FRT) FlpIn cells, pcDNA5/FRT
Excerpt: as §1, §2, §3, §4, §5

T5 sequence (P13569 whole entry D1152H): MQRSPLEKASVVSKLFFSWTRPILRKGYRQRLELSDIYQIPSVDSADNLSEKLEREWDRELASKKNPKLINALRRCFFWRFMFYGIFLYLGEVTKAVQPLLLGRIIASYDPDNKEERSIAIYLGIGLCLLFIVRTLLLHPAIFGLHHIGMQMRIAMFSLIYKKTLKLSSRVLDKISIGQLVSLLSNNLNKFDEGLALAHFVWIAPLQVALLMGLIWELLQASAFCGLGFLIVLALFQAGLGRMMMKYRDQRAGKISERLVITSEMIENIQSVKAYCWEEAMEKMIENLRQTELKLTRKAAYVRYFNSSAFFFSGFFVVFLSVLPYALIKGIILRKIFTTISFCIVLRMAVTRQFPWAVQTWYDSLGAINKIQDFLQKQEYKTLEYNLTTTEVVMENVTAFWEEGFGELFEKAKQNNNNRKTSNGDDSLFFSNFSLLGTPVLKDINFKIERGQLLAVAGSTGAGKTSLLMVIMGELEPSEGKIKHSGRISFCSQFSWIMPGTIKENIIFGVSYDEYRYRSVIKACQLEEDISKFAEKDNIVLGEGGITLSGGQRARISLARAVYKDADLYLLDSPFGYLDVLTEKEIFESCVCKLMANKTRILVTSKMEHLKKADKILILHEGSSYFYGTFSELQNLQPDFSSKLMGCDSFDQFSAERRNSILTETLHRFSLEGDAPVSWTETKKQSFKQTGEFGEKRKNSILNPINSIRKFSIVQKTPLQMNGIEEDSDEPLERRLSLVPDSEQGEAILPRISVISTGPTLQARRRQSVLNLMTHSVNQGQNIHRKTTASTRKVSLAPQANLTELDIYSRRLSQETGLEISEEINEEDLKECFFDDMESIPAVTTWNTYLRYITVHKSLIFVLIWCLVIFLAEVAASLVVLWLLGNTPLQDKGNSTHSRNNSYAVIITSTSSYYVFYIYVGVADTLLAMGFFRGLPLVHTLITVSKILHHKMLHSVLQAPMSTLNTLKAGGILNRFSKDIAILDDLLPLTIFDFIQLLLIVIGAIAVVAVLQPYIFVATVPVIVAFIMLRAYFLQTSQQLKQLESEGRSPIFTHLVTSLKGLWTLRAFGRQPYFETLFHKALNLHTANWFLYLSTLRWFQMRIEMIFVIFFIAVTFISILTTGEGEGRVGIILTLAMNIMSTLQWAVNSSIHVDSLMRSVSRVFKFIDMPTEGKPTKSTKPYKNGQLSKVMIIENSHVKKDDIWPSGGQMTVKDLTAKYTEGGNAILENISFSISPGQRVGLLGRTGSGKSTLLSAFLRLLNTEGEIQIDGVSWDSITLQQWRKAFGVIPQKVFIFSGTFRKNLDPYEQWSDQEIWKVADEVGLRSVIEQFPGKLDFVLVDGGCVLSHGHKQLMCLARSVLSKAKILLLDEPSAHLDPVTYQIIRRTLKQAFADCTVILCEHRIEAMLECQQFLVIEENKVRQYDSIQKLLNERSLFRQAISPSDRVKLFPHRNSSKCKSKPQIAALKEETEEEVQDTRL
T4 sequence (P13569 whole entry D110H): as the sequence (P13569 whole entry D1152H) above, with D110H, H1152D counted along it
T1 sequence (P13569 with tags, fused parts or gaps DEL508-508): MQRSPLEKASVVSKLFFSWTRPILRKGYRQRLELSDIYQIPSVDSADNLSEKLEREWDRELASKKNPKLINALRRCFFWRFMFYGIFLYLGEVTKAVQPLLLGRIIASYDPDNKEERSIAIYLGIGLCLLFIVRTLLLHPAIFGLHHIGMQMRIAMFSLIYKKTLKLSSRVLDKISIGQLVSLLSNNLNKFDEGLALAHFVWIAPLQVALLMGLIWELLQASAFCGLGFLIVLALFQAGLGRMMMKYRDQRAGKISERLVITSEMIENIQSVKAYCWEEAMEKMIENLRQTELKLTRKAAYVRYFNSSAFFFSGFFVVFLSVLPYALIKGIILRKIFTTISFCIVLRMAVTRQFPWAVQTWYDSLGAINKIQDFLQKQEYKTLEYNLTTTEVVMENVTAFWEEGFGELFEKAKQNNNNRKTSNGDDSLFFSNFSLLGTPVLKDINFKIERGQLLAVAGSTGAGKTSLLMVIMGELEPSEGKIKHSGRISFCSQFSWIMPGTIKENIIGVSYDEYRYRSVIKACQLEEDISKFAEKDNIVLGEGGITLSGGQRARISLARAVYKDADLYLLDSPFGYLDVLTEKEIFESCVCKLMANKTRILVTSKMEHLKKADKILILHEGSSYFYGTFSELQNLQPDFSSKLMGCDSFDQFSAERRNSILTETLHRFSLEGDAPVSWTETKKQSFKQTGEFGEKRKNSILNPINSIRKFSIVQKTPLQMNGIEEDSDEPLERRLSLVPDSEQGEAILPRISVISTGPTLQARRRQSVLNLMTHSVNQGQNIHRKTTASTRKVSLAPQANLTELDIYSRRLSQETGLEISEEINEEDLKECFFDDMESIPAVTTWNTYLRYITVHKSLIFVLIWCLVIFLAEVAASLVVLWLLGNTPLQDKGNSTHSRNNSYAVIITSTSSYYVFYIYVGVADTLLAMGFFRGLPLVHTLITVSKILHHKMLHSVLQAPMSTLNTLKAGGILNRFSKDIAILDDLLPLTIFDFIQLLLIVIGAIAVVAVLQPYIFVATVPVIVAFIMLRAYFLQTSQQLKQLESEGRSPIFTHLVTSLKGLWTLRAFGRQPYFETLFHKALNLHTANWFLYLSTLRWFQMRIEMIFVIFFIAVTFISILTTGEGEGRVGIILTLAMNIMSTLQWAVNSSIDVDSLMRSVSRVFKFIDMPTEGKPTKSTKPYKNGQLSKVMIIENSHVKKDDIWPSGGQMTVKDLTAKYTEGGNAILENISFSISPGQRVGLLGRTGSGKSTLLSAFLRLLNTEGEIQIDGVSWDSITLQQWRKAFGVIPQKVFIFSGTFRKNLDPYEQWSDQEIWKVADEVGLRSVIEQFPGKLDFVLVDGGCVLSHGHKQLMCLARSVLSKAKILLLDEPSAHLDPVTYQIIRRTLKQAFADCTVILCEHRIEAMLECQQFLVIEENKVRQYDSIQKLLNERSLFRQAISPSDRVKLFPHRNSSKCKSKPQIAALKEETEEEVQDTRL
T9 sequence (P13569 whole entry F1074L): as the sequence (P13569 whole entry D1152H) above, with F1074L, H1152D counted along it
T3 sequence (P13569 whole entry D110E): as the sequence (P13569 whole entry D1152H) above, with D110E, H1152D counted along it
T2 sequence (P13569 whole entry A455E): as the sequence (P13569 whole entry D1152H) above, with A455E, H1152D counted along it
T13 sequence (P13569 whole entry G551S): as the sequence (P13569 whole entry D1152H) above, with G551S, H1152D counted along it
T10 sequence (P13569 whole entry G1244E): as the sequence (P13569 whole entry D1152H) above, with H1152D, G1244E counted along it
T6 sequence (P13569 whole entry D1270N): as the sequence (P13569 whole entry D1152H) above, with H1152D, D1270N counted along it
T12 sequence (P13569 whole entry G178R): as the sequence (P13569 whole entry D1152H) above, with G178R, H1152D counted along it
T11 sequence (P13569 whole entry G1349D): as the sequence (P13569 whole entry D1152H) above, with H1152D, G1349D counted along it
T7 sequence (P13569 whole entry D579G): as the sequence (P13569 whole entry D1152H) above, with D579G, H1152D counted along it
T8 sequence (P13569 whole entry E56K): as the sequence (P13569 whole entry D1152H) above, with E56K, H1152D counted along it

- % Activity (ΔF508-CFTR): ++ (“++” means between 25% to 100%)
- increase in chloride transport, relative to baseline chloride transport (human CFTR mutant A455E): greater than or equal to 10%
- increase in chloride transport, relative to baseline chloride transport (human CFTR mutant D110E): greater than or equal to 10%
- increase in chloride transport, relative to baseline chloride transport (human CFTR mutant D110H): greater than or equal to 10%
- increase in chloride transport, relative to baseline chloride transport (human CFTR mutant D1152H): greater than or equal to 10%
- increase in chloride transport, relative to baseline chloride transport (human CFTR mutant D1270N): greater than or equal to 10%
- increase in chloride transport, relative to baseline chloride transport (human CFTR mutant D579G): greater than or equal to 10%
- increase in chloride transport, relative to baseline chloride transport (human CFTR mutant E56K): greater than or equal to 10%
- increase in chloride transport, relative to baseline chloride transport (human CFTR mutant F1074L): greater than or equal to 10%
- increase in chloride transport, relative to baseline chloride transport (human CFTR mutant G1244E): greater than 10 fold
- increase in chloride transport, relative to baseline chloride transport (human CFTR mutant G1349D): greater than 10 fold
- increase in chloride transport, relative to baseline chloride transport (human CFTR mutant G178R): greater than 10 fold
- increase in chloride transport, relative to baseline chloride transport (human CFTR mutant G551S): greater than 10 fold
SMILES: CC(C)(C)c1cc(C(C)(C)C)c(NC(=O)c2c[nH]c3ccccc3c2=O)cc1O [Compound 1, N-[2,4-bis(1,1-dimethylethyl)-5-hydroxyphenyl]-1,4-dihydro-4-oxoquinoline-3-carboxamide]

Source: US20130331412A9, “Pharmaceutical Compositions and Administrations Thereof” (VERTEX PHARMACEUTICALS INCORPORATED, priority 2010, published 2013)
